Measured values reported in paper PMC10117725, “From an Hsp90 - binding protein to a peptide drug” (microLife, 2022).
Where no end group is shown, it is not given here.

Legend:
MONO-MAC-6 (MM6) cells = assay: MTT cytotoxicity in MM6 cells; assay type: cell-based, human; settings: 24 h
Experimental: MTT (3-(4,5-dimethylthiazol-2-yl)-2,5-diphenyl tetrazolium bromide) assay was employed to analyze the cytotoxicity of peptides and geldanamycin to the cells. 5 × 10^5 cells were seeded in a 96 flat bottom well plate and incubated for 2.5 or 24 h at 37°C with 5% CO2. The cells were then treated with increasing concentration (0 to 200 µM) of peptides or geldanamycin for 24 h. After the incubation, 10 μl of the MTT labelling reagent is added to each well to attain a final concentration 0.5 mg/ml, followed by 4 h incubation. Metabolically active cells convert the yellow tetrazolium salt to purple formazan crystals, which were solubilized using the solubilization solution (DMSO) and measured for absorbance at λmax/λref–570/690 nm (Saising et al. [2018]).

[1] = tested on: human peripheral blood mononuclear cells (PBMCs); assay: Cytokine induction in PBMCs (bead-based immunoassay); assay type: cell-based; settings: IL-6, IL10, IL-12p70, IL12-p40, IL-23, TNFα, IL-1ß, IL-1RA, IP-10, TARC; 20 h
Experimental: Human peripheral blood mononuclear cells (PBMCs) from buffy coat blood samples of healthy donors were stimulated with the indicated doses of L15 and L13 for 20 h. For the subsequent bead-based immunoassay, the cell culture supernatants of a total of four buffy coats per immunoassay were used. Each of the stimulations was performed in biological duplicates. The secreted cytokines were then identified and quantified using the immunofluorescent bead-based immunoassay LEGENDplex® Human Macrophage/Microglia Panel (13-plex) and the corresponding Data Analysis Software from BioLegend. Muramyl Dipeptide (MDP) which activates the NOD-2 receptors was used as the positive control.

S. aureus Newman = assay: Mouse S. aureus Newman bacteremia model; assay type: in vivo, NMRI mice
Experimental: About 8- to 10-week-old female NMRI mice were purchased from Envigo (Venray, the Netherlands) and stored under standard temperature, light, and nutrition conditions in the animal facility of the Department of Rheumatology and Inflammation Research, University of Gothenburg. […] To study the effect of L15 on S. aureus bacteremia two separate experiments were performed. The mice were treated intraperitoneally with L15 (10 mg/kg) in 200 µl of PBS every 12 h, starting 2 h before inoculation with bacteria and continuing until the animals were sacrificed. Mice were challenged with septic dose of 2 × 10^6 CFU/mouse of S aureus Newman. To induce the S. aureus systemic infection in NMRI mice, 0.2 ml of S. aureus Newman suspension was inoculated intravenously into the tail vein of the mice. During the course of the experiments, the mice were regularly weighed until the mice were sacrificed. After sacrificing the mice at day 7, kidneys from mice were aseptically removed, homogenised, serially diluted with PBS and enumerated to quantify the bacterial CFUs.

| Sequence | percentage of viable cells, MM6, 1 µM (MONO-MAC-6 (MM6) cells; 1 µM) | percentage of viable cells, MM6, 200 µM (MONO-MAC-6 (MM6) cells; 200 µM) | cytokine inducing activity in PBMCs [1] | survival during the 7-day observation period (S. aureus Newman; L15 10 mg/kg i.p. every 12 h, 40% of the control group died) | bacterial load in the kidneys (S. aureus Newman; L15 10 mg/kg i.p. every 12 h, day 7, vs PBS control) | weight loss of infected mice (S. aureus Newman; L15 10 mg/kg i.p. every 12 h from 2 h before i.v. 2 × 10^6 CFU/mouse, 7 days, vs PBS control) | reduction of lethality of S. aureus in the mouse model (S. aureus Newman; mouse bacteremia model) |
| --- | --- | --- | --- | --- | --- | --- | --- |
| GHYFVTTFY [L13] | 106.71 ± 6.40% | 82.43 ± 8.59% | – | – | – | – | – |
| TAKGHYFVTTFYRNG [L15] | – | – | relatively inert | all mice treated with L15 survived | No significant difference | significantly reduced | about 40% |
